Experimental data reported in ChEMBL document CHEMBL2429768, “Eco-friendly synthesis and antimicrobial activities of substituted-5-(1H-indol-3-yl)methylene)-2,2-dimethyl-1,3-dioxane-4,6-dione derivatives” (2013).
Converted amounts (≈) assume the structure as drawn.

Tests used:
Assay type in all cases: functional
Bacillus subtilis [1] = assay: Antibacterial activity against Bacillus subtilis at 200 ug/ml after 24 hrs by agar well diffusion method; settings: read-out: DIZ
Escherichia coli [2] = assay: Antibacterial activity against Escherichia coli ATCC 8739 at 500 ug/ml after 24 hrs by agar well diffusion method; settings: ATCC 8739, 24 h, read-out: DIZ
Staphylococcus aureus [3] = assay: Antibacterial activity against Staphylococcus aureus ATCC 6538 at 300 ug/ml after 24 hrs by agar well diffusion method; settings: ATCC 6538, 24 h, read-out: DIZ
Fusarium oxysporum [4] = assay: Antifungal activity against Fusarium oxysporum after 72 hrs by agar well diffusion method
Staphylococcus aureus [5] = assay: Antibacterial activity against Staphylococcus aureus ATCC 6538 after 24 hrs by agar well diffusion method; settings: ATCC 6538, 24 h
Staphylococcus aureus [6] = assay: Antibacterial activity against Staphylococcus aureus ATCC 6538 at 50 ug/ml after 24 hrs by agar well diffusion method; settings: ATCC 6538, 24 h, read-out: DIZ
Klebsiella pneumoniae [7] = assay: Antibacterial activity against Klebsiella pneumoniae at 100 ug/ml after 24 hrs by agar well diffusion method; settings: read-out: DIZ
Aspergillus niger [8] = assay: Antifungal activity against Aspergillus niger at 500 ug/ml after 72 hrs by agar well diffusion method; settings: read-out: DIZ
Bacillus subtilis [9] = assay: Antibacterial activity against Bacillus subtilis at 300 ug/ml after 24 hrs by agar well diffusion method; settings: read-out: DIZ
Rhizoctonia solani [10] = assay: Antifungal activity against Rhizoctonia solani at 500 ug/ml after 72 hrs by agar well diffusion method; settings: read-out: DIZ
Fusarium oxysporum [11] = assay: Antifungal activity against Fusarium oxysporum at 200 ug/ml after 72 hrs by agar well diffusion method; settings: read-out: DIZ
Klebsiella pneumoniae [12] = assay: Antibacterial activity against Klebsiella pneumoniae at 500 ug/ml after 24 hrs by agar well diffusion method; settings: read-out: DIZ
Aspergillus niger [13] = assay: Antifungal activity against Aspergillus niger after 72 hrs by agar well diffusion method
Aspergillus flavus [14] = assay: Antifungal activity against Aspergillus flavus at 500 ug/ml after 72 hrs by agar well diffusion method; settings: read-out: DIZ
Escherichia coli [15] = assay: Antibacterial activity against Escherichia coli ATCC 8739 at 200 ug/ml after 24 hrs by agar well diffusion method; settings: ATCC 8739, 24 h, read-out: DIZ
Aspergillus niger [16] = assay: Antifungal activity against Aspergillus niger at 50 ug/ml after 72 hrs by agar well diffusion method; settings: read-out: DIZ
Aspergillus flavus [17] = assay: Antifungal activity against Aspergillus flavus at 200 ug/ml after 72 hrs by agar well diffusion method; settings: read-out: DIZ
Aspergillus flavus [18] = assay: Antifungal activity against Aspergillus flavus at 100 ug/ml after 72 hrs by agar well diffusion method; settings: read-out: DIZ
Fusarium oxysporum [19] = assay: Antifungal activity against Fusarium oxysporum at 50 ug/ml after 72 hrs by agar well diffusion method; settings: read-out: DIZ
Klebsiella pneumoniae [20] = assay: Antibacterial activity against Klebsiella pneumoniae after 24 hrs by agar well diffusion method
Bacillus subtilis [21] = assay: Antibacterial activity against Bacillus subtilis at 50 ug/ml after 24 hrs by agar well diffusion method; settings: read-out: DIZ
Klebsiella pneumoniae [22] = assay: Antibacterial activity against Klebsiella pneumoniae at 50 ug/ml after 24 hrs by agar well diffusion method; settings: read-out: DIZ
Bacillus subtilis [23] = assay: Antibacterial activity against Bacillus subtilis at 100 ug/ml after 24 hrs by agar well diffusion method; settings: read-out: DIZ
Aspergillus flavus [24] = assay: Antifungal activity against Aspergillus flavus at 300 ug/ml after 72 hrs by agar well diffusion method; settings: read-out: DIZ
Rhizoctonia solani [25] = assay: Antifungal activity against Rhizoctonia solani after 72 hrs by agar well diffusion method
Staphylococcus aureus [26] = assay: Antibacterial activity against Staphylococcus aureus ATCC 6538 at 500 ug/ml after 24 hrs by agar well diffusion method; settings: ATCC 6538, 24 h, read-out: DIZ
Staphylococcus aureus [27] = assay: Antibacterial activity against Staphylococcus aureus ATCC 6538 at 200 ug/ml after 24 hrs by agar well diffusion method; settings: ATCC 6538, 24 h, read-out: DIZ
Aspergillus niger [28] = assay: Antifungal activity against Aspergillus niger at 100 ug/ml after 72 hrs by agar well diffusion method; settings: read-out: DIZ
Fusarium oxysporum [29] = assay: Antifungal activity against Fusarium oxysporum at 300 ug/ml after 72 hrs by agar well diffusion method; settings: read-out: DIZ
Fusarium oxysporum [30] = assay: Antifungal activity against Fusarium oxysporum at 500 ug/ml after 72 hrs by agar well diffusion method; settings: read-out: DIZ
Rhizoctonia solani [31] = assay: Antifungal activity against Rhizoctonia solani at 50 ug/ml after 72 hrs by agar well diffusion method; settings: read-out: DIZ
Rhizoctonia solani [32] = assay: Antifungal activity against Rhizoctonia solani at 100 ug/ml after 72 hrs by agar well diffusion method; settings: read-out: DIZ
Aspergillus flavus [33] = assay: Antifungal activity against Aspergillus flavus at 50 ug/ml after 72 hrs by agar well diffusion method; settings: read-out: DIZ
Klebsiella pneumoniae [34] = assay: Antibacterial activity against Klebsiella pneumoniae at 300 ug/ml after 24 hrs by agar well diffusion method; settings: read-out: DIZ
Fusarium oxysporum [35] = assay: Antifungal activity against Fusarium oxysporum at 100 ug/ml after 72 hrs by agar well diffusion method; settings: read-out: DIZ
Aspergillus niger [36] = assay: Antifungal activity against Aspergillus niger at 200 ug/ml after 72 hrs by agar well diffusion method; settings: read-out: DIZ
Aspergillus flavus [37] = assay: Antifungal activity against Aspergillus flavus after 72 hrs by agar well diffusion method
Bacillus subtilis [38] = assay: Antibacterial activity against Bacillus subtilis after 24 hrs by agar well diffusion method
Rhizoctonia solani [39] = assay: Antifungal activity against Rhizoctonia solani at 200 ug/ml after 72 hrs by agar well diffusion method; settings: read-out: DIZ
Escherichia coli [40] = assay: Antibacterial activity against Escherichia coli ATCC 8739 at 50 ug/ml after 24 hrs by agar well diffusion method; settings: ATCC 8739, 24 h, read-out: DIZ
Escherichia coli [41] = assay: Antibacterial activity against Escherichia coli ATCC 8739 after 24 hrs by agar well diffusion method; settings: ATCC 8739, 24 h
Escherichia coli [42] = assay: Antibacterial activity against Escherichia coli ATCC 8739 at 100 ug/ml after 24 hrs by agar well diffusion method; settings: ATCC 8739, 24 h, read-out: DIZ
Aspergillus niger [43] = assay: Antifungal activity against Aspergillus niger at 300 ug/ml after 72 hrs by agar well diffusion method; settings: read-out: DIZ
Rhizoctonia solani [44] = assay: Antifungal activity against Rhizoctonia solani at 300 ug/ml after 72 hrs by agar well diffusion method; settings: read-out: DIZ
Escherichia coli [45] = assay: Antibacterial activity against Escherichia coli ATCC 8739 at 300 ug/ml after 24 hrs by agar well diffusion method; settings: ATCC 8739, 24 h, read-out: DIZ
Bacillus subtilis [46] = assay: Antibacterial activity against Bacillus subtilis at 500 ug/ml after 24 hrs by agar well diffusion method; settings: read-out: DIZ
Klebsiella pneumoniae [47] = assay: Antibacterial activity against Klebsiella pneumoniae at 200 ug/ml after 24 hrs by agar well diffusion method; settings: read-out: DIZ
Staphylococcus aureus [48] = assay: Antibacterial activity against Staphylococcus aureus ATCC 6538 at 100 ug/ml after 24 hrs by agar well diffusion method; settings: ATCC 6538, 24 h, read-out: DIZ

**Q.** With `Cn1cc(C=C2C(=O)OC(C)(C)OC2=O)c2cc([N+](=O)[O-])ccc21` as the compound, how does the zone of inhibition at 200 µg/mL (Bacillus subtilis [1]) read?
**A.** 12 mm

**Q.** And the zone of inhibition at 500 µg/mL (Escherichia coli [2])?
**A.** 30 mm

**Q.** And the zone of inhibition at 300 µg/mL (Staphylococcus aureus [3])?
**A.** 18 mm

**Q.** And the MIC (Fusarium oxysporum [4])?
**A.** 35 µg/mL (≈ 106 µM)

**Q.** And the MIC (Staphylococcus aureus [5])?
**A.** 25 µg/mL (≈ 75.7 µM)

**Q.** And the zone of inhibition at 50 µg/mL (Staphylococcus aureus [6])?
**A.** 6 mm

**Q.** And the zone of inhibition at 100 µg/mL (Klebsiella pneumoniae [7])?
**A.** 14 mm

**Q.** What about the zone of inhibition at 500 µg/mL (Aspergillus niger [8]) of the same compound?
**A.** 25 mm

**Q.** What about the zone of inhibition at 300 µg/mL (Bacillus subtilis [9]) of the same compound?
**A.** 15 mm

**Q.** And the zone of inhibition at 500 µg/mL (Rhizoctonia solani [10])?
**A.** 29 mm

**Q.** What about the zone of inhibition at 200 µg/mL (Fusarium oxysporum [11]) of the same compound?
**A.** 16 mm

**Q.** And the zone of inhibition at 500 µg/mL (Klebsiella pneumoniae [12])?
**A.** 31 mm

**Q.** What about the MIC (Aspergillus niger [13]) of the same compound?
**A.** 40 µg/mL (≈ 121 µM)

**Q.** And the zone of inhibition at 500 µg/mL (Aspergillus flavus [14])?
**A.** 23 mm

**Q.** What about the zone of inhibition at 200 µg/mL (Escherichia coli [15]) of the same compound?
**A.** 16 mm

**Q.** What about the zone of inhibition at 50 µg/mL (Aspergillus niger [16]) of the same compound?
**A.** 6 mm

**Q.** And the zone of inhibition at 200 µg/mL (Aspergillus flavus [17])?
**A.** 12 mm

**Q.** What about the zone of inhibition at 100 µg/mL (Aspergillus flavus [18]) of the same compound?
**A.** 9 mm

**Q.** What about the zone of inhibition at 50 µg/mL (Fusarium oxysporum [19]) of the same compound?
**A.** 7 mm

**Q.** And the MIC (Klebsiella pneumoniae [20])?
**A.** 15 µg/mL (≈ 45.4 µM)

**Q.** What about the zone of inhibition at 50 µg/mL (Bacillus subtilis [21]) of the same compound?
**A.** 4 mm

**Q.** What about the zone of inhibition at 50 µg/mL (Klebsiella pneumoniae [22]) of the same compound?
**A.** 9 mm

**Q.** What about the zone of inhibition at 100 µg/mL (Bacillus subtilis [23]) of the same compound?
**A.** 9 mm

**Q.** And the zone of inhibition at 300 µg/mL (Aspergillus flavus [24])?
**A.** 15 mm

**Q.** What about the MIC (Rhizoctonia solani [25]) of the same compound?
**A.** 35 µg/mL (≈ 106 µM)

**Q.** And the zone of inhibition at 500 µg/mL (Staphylococcus aureus [26])?
**A.** 25 mm

**Q.** What about the zone of inhibition at 200 µg/mL (Staphylococcus aureus [27]) of the same compound?
**A.** 14 mm

**Q.** And the zone of inhibition at 100 µg/mL (Aspergillus niger [28])?
**A.** 10 mm

**Q.** What about the zone of inhibition at 300 µg/mL (Fusarium oxysporum [29]) of the same compound?
**A.** 21 mm

**Q.** And the zone of inhibition at 500 µg/mL (Fusarium oxysporum [30])?
**A.** 29 mm

**Q.** What about the zone of inhibition at 50 µg/mL (Rhizoctonia solani [31]) of the same compound?
**A.** 7 mm

**Q.** What about the zone of inhibition at 100 µg/mL (Rhizoctonia solani [32]) of the same compound?
**A.** 12 mm

**Q.** What about the zone of inhibition at 50 µg/mL (Aspergillus flavus [33]) of the same compound?
**A.** 4 mm

**Q.** What about the zone of inhibition at 300 µg/mL (Klebsiella pneumoniae [34]) of the same compound?
**A.** 23 mm

**Q.** And the zone of inhibition at 100 µg/mL (Fusarium oxysporum [35])?
**A.** 12 mm

**Q.** What about the zone of inhibition at 200 µg/mL (Aspergillus niger [36]) of the same compound?
**A.** 14 mm

**Q.** What about the MIC (Aspergillus flavus [37]) of the same compound?
**A.** 40 µg/mL (≈ 121 µM)

**Q.** What about the MIC (Bacillus subtilis [38]) of the same compound?
**A.** 30 µg/mL (≈ 90.8 µM)

**Q.** What about the zone of inhibition at 200 µg/mL (Rhizoctonia solani [39]) of the same compound?
**A.** 16 mm

**Q.** And the zone of inhibition at 50 µg/mL (Escherichia coli [40])?
**A.** 8 mm

**Q.** What about the MIC (Escherichia coli [41]) of the same compound?
**A.** 15 µg/mL (≈ 45.4 µM)

**Q.** What about the zone of inhibition at 100 µg/mL (Escherichia coli [42]) of the same compound?
**A.** 13 mm

**Q.** What about the zone of inhibition at 300 µg/mL (Aspergillus niger [43]) of the same compound?
**A.** 18 mm

**Q.** And the zone of inhibition at 300 µg/mL (Rhizoctonia solani [44])?
**A.** 21 mm

**Q.** What about the zone of inhibition at 300 µg/mL (Escherichia coli [45]) of the same compound?
**A.** 20 mm

**Q.** What about the zone of inhibition at 500 µg/mL (Bacillus subtilis [46]) of the same compound?
**A.** 23 mm

**Q.** What about the zone of inhibition at 200 µg/mL (Klebsiella pneumoniae [47]) of the same compound?
**A.** 18 mm

**Q.** What about the zone of inhibition at 100 µg/mL (Staphylococcus aureus [48]) of the same compound?
**A.** 10 mm
